Reference: US20170355705A1 (GlaxoSmithKline Intellectual Property (No.2) Limited, priority 2014, published 2017)

Biological target: T1, SIRT1 (Homo sapiens, UniProt Q96EB6)
T1 sequence (Q96EB6 1-747): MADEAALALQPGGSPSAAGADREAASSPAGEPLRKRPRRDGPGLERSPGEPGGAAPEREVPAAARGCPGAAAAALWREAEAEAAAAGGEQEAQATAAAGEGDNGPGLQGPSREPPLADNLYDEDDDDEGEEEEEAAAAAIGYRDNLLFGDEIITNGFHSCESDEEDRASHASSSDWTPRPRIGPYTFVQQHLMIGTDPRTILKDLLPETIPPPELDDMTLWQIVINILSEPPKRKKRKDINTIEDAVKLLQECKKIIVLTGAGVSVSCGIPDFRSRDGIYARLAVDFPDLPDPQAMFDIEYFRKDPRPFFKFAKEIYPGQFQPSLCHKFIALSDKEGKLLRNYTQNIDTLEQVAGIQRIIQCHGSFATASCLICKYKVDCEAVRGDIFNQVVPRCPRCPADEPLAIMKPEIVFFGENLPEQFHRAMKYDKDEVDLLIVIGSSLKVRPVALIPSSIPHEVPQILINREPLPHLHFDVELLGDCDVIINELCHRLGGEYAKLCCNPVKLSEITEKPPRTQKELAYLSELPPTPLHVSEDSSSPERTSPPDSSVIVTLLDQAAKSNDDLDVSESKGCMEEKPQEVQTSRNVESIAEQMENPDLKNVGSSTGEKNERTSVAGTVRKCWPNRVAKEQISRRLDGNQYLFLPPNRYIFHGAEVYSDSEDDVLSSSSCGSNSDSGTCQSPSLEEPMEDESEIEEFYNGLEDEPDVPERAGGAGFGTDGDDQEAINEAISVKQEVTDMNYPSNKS
Experiment: Trp mass spectrometry assay of SIRT1 activity (EC1.5, percent maximum activation)
Format: biochemical
Conditions: Trp mass spectrometry assay; 0.5 μM peptide substrate, 120 μM βNAD+, 10 nM SIRT1, 25 minutes at 25° C.
Method in brief: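 Sirtuin deacetylation was run with purified N-His SIRT1 and the 5TMR Trp peptide across a compound titration, stopped after 25 min by acidification, and analysed by MS for OAADPR. Endpoint lay within the linear range.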

| SMILES | TRP Activity (EC1.5, concentration of test compound that results in 150% activation of SIRT1) | TRP MAX RESP (percent maximum fold activation) |
| --- | --- | --- |
| Cc1ncc(-c2ccc3c(n2)N(C(=O)Nc2cnccn2)[C@H]2CCN3C2)s1 [Example 214, (4S)-7-(2-methylthiazol-5-yl)-N-(pyrazin-2-yl)-3,4-dihydro-1,4-methanopyrido[2,3-b][1,4]diazepine-5(2H)-carboxamide] | B (EC1.5 1-25 μM) | A (Fold activation ≧150%) |
| COC(=O)c1cc(-c2ccc3c(n2)N(C(=O)Nc2cnccn2)[C@H]2CCN3C2)ccn1 [Example 215, methyl 4-((4S)-5-(pyrazin-2-ylcarbamoyl)-2,3,4,5-tetrahydro-1,4-methanopyrido[2,3-b][1,4]diazepin-7-yl)picolinate] | B (EC1.5 1-25 μM) | A (Fold activation ≧150%) |
| O=C(Nc1cnccn1)N1c2nc(-c3ccnc(C(F)F)c3)ccc2N2CC[C@H]1C2 [Example 216, (4S)-7-(2-(difluoromethyl)pyridin-4-yl)-N-(pyrazin-2-yl)-3,4-dihydro-1,4-methanopyrido[2,3-b][1,4]diazepine-5(2H)-carboxamide] | A (EC1.5<1 μM) | A (Fold activation ≧150%) |
| Cc1cc(-c2ccc3c(n2)N(C(=O)Nc2cnccn2)[C@H]2CCN3C2)c(F)cn1 [Example 217, (4S)-7-(5-fluoro-2-methylpyridin-4-yl)-N-(pyrazin-2-yl)-3,4-dihydro-1,4-methanopyrido[2,3-b][1,4]diazepine-5(2H)-carboxamide] | B (EC1.5 1-25 μM) | A (Fold activation ≧150%) |
| O=C(Nc1cnccn1)N1c2nc(-c3ccnc(CO)c3)ccc2N2CC[C@H]1C2 [Example 218, (4S)-7-(2-(Hydroxymethyl)pyridin-4-yl)-N-(pyrazin-2-yl)-3,4-dihydro-1,4 methanopyrido[2,3-b][1,4]diazepine-5(2H)-carboxamide] | B (EC1.5 1-25 μM) | A (Fold activation ≧150%) |
| N#Cc1ccc(-c2ccc3c(n2)N(C(=O)Nc2cnccn2)[C@H]2CCN3C2)cn1 [Example 219, (4S)-7-(6-cyanopyridin-3-yl)-N-(pyrazin-2-yl)-3,4-dihydro-1,4-methanopyrido[2,3-b][1,4]diazepine-5(2H)-carboxamide] | C (EC1.5>25 μM) | B (Fold Activation <150%) |
| CCc1cnc(NC(=O)N2c3nc(-c4ccc(C)nc4)ccc3N3CC[C@H]2C3)cn1 [Example 220, (4S)-N-(5-ethylpyrazin-2-yl)-7-(6-methylpyridin-3-yl)-3,4-dihydro-1,4-methanopyrido[2,3-b][1,4]diazepine-5(2H)-carboxamide] | B (EC1.5 1-25 μM) | A (Fold activation ≧150%) |
| Cc1cc(-c2ccc3c(n2)N(C(=O)Nc2cncc(OC(C)C)n2)[C@H]2CCN3C2)ccn1 [Example 221, (4S)-N-(6-isopropoxypyrazin-2-yl)-7-(2-methylpyridin-4-yl)-3,4-dihydro-1,4-methanopyrido[2,3-b][1,4]diazepine-5(2H)-carboxamide] | A (EC1.5<1 μM) | A (Fold activation ≧150%) |
| Cc1cc(-c2ccc3c(n2)N(C(=O)Nc2cnccn2)[C@H]2CCN3C2)cnc1C#N [Example 222, (4S)-7-(6-cyano-5-methylpyridin-3-yl)-N-(pyrazin-2-yl)-3,4-dihydro-1,4-methanopyrido[2,3-b][1,4]diazepine-5(2H)-carboxamide] | B (EC1.5 1-25 μM) | A (Fold activation ≧150%) |
